The values that follow come from US20200069592A1, “HSP90 INHIBITOR ORAL FORMULATIONS AND RELATED METHODS” (Samus Therapeutics, Inc., priority 2017, published 2020).

The test system of series [1] is MDA-MB-468 triple negative breast tumor xenograft. Nature of the series: MDA-MB-468 triple negative breast tumor xenograft model, tumor volume (IP vs PO). Format: in vivo, Nu/Nu (athymic nude) female mice. To be noted: for Mean tumor volume as % of mean tumor volume in control mice receiving vehicle alone / Mean tumor volume as % of mean tumor volume in mice receiving 75 mg/kg orally or intraperitoneally: Day 89; for Mean tumor volume on Day 117 relative to the same mice at Day 1: treatment stopped Day 103. How it is done: Mice were identified with a transponder.
To form the xenografts, 1×10^7 MDA-MB-468 cells suspended in 0.1 ml of 50% Matrigel/50% Media (1:1) were injected into the mammary fat pad of each mouse. Treatment was initiated when the mean tumor size reached 100-150 mm^3 and the day of treatment initiation was designated as Day 1. Subcutaneous tumor size was calculated as tumor volume (mm^3)=(a×b^2/2), where ‘b’ is the smallest diameter and ‘a’ is the largest diameter.
Oral gavage was used for oral administration.

For series [2] the following is noted: female, Nu/Nu (NU-Foxn1^nu) athymic nude, mouse, in vivo, po, 150 mg/kg, 14 days.
Excerpt: The animals used in this study were Nu/Nu (NU-Foxn1^nu) (athymic nude) physiologically normal female mice supplied by Charles River. At the time of inoculation, the age of the animals was 5-8 weeks. Sixty total animals were used and animals were not replaced during the course of this study. Mice were identified with a transponder. The animals were housed in individually ventilated microisolator cages and allowed to acclimate for at least 5-7 days. The animals were maintained under pathogen-free conditions and given Teklad Global Diet® 2920x irradiated pellets for food and autoclaved water ad libitum.
Compound ldihydrochloride (2HCl) was provided as a crystalline powder and stored at 2-8° C. protected from light. The administered form of Compound 1 2HCl was a clear solution. For intraperitoneal administration, Compound 1 2HCl was reconstituted in PBS. For oral administration, Compound 1 2HCl was reconstituted in 0.5% Methylcellulose (MC) in water. The salt: base ratio was 1.14:1 (i.e., to obtain 100 mg of Compound 1 free base, 114 mg of Compound 1 dihydrochloride salt was weighed out). Dose levels of Compound 1 were based on the free base, not the salt. Compound 1 2HCl in administered form was prepared fresh immediately prior to use.
Animals were randomized using random equilibration of tumor volume into one of six study groups, as shown in Table 22 (Groups 1-6), with 10 animals in each group.
Group 1 was administered vehicle control alone (without Compound 1 2HCl) intraperitoneally (IP) three times weekly (TIW) until the end of the study. PBS was used as the vehicle control and was administered at a volume of 10 mL/kg.
Groups 2-6 were administered Compound 1 2HCl at a volume of 10 mL/kg three times weekly (TIW) until the end of the study with the doses as described next.
Group 2 received 75 mg/kg Compound 1 2HCl via intraperitoneal administration.
Group 3 received 75 mg/kg Compound 1 2HCl via oral administration (PO). Group 4 received 100 mg/kg Compound 1 2HCl via oral administration. Group 5 received 125 mg/kg Compound 1 2HCl via oral administration. Group 6 received 150 mg/kg Compound 1 2HCl via oral administration. […]
Tumor volume and body weight were measured twice weekly with gross observations daily. […]
For data analysis, simple statistics (ANOVA) will be conducted on tumor volumes to verify significance of treatment groups relative to control. Growth curves will be constructed and percent tumor growth inhibition (TGI) will be calculated as a means to assess the effect of the single-agent therapy regimens. […]
The Materials and Methods used were the same as discussed above for Example 3, except for the lengths of treatment for Groups 1-4. […] Tumor growth and body weight were measured twice weekly with gross observations daily for Groups 1-5 until Day 117.

The structures appear in SMILES notation.

Regarding `CC(C)NCCCn1c(Sc2cc3c(cc2I)OCO3)nc2c(N)ncnc21` [Compound 1 2HCl], the “Effect on tumor growth (tumor volume)” value in series [1] (75 mg/kg IP, TIW, Day 36) is given as “tumor inhibition was observed”; in series [1] (75 mg/kg PO vs same dose IP, first 14 days of treatment), “inhibited tumor growth slightly more than intraperitoneal administration”; in series [1] (75 mg/kg PO, TIW, Day 36), “tumor inhibition was observed”; in series [1] (100 mg/kg PO, TIW, 89 days), “tumor regressive”; in series [1] (100 mg/kg PO, TIW, Day 36) it was “Tumor inhibition was also observed”; in series [1] (125 mg/kg PO, TIW (dosing holiday Day 29), 36 day period), “caused tumor regression”. Moreover, the “Effect on tumor growth (tumor volume)” value in series [1] (125 mg/kg PO, TIW with dosing holidays, 89 days) is given as “tumor regressive”; in series [1] (Group 2: 75 mg/kg IP in PBS, TIW, Study Days 1-8), “did not inhibit tumor growth”; in series [1] (Group 3: 75 mg/kg PO in 0.5% MC, TIW, Day 8, compared with Group 2), “tumor growth was reduced”; in series [1] (Group 4: 100 mg/kg PO, TIW, Days 1-8, compared to Group 1), “Inhibition of tumor growth”; in series [1] (Group 5: 125 mg/kg PO, TIW, Days 1-8), “greatest suppression of tumor growth”; in series [1] (Group 6: 150 mg/kg PO, TIW, Days 1-8) it was “greatest suppression of tumor growth”. For the same compound, the “Mean tumor volume as % of mean tumor volume in control mice receiving vehicle alone” value in series [1] (75 mg/kg IP, TIW) is given as “about 20%”; in series [1] (75 mg/kg PO, TIW), “about 20%”. Also, the “Mean tumor volume on Day 117 relative to the same mice at Day 1” value in series [1] (75 mg/kg IP) and in series [1] (75 mg/kg PO) was 1.7-1.9 times throughout. For the same compound, the “Mean tumor volume as % of mean tumor volume in mice receiving 75 mg/kg orally or intraperitoneally” value in series [1] (100 mg/kg PO, TIW) is “about 50%”; in series [1] (125 mg/kg PO, TIW with dosing holidays, dosing ended Day 78), “about 50%”. Further, the “Mean tumor volume as % of mean tumor volume in the same mice at day 1” value in series [1] (100 mg/kg PO, after treatment stopped Day 103, study to Day 117) is listed as “about 63%”; in series [1] (125 mg/kg PO, after treatment stopped Day 78, study to Day 117), approximately 70%. Also, the Treatment toxicity entry in series [2] is “stopped on Day 14 due to toxicity”.
